Laboratory results published in PubChem BioAssay (NCI).
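Test compounds were applied to cells in 96-well plates for 48 hours at 5 doses. At the TGI there is no net growth.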

Columns and labels:
Assay in all cases: NCI anticancer screen, dose series, 48 h
SK-MEL-2 melanoma = tested on: SK-MEL-2 melanoma
BT-549 breast = tested on: BT-549 breast
IGROV1 ovarian = tested on: IGROV1 ovarian
K-562 leukemia = tested on: K-562 leukemia
A549 NSCLC = tested on: A549 NSCLC
MDA-MB-231 breast = tested on: MDA-MB-231 breast
MALME-3M melanoma = tested on: MALME-3M melanoma
SNB-19 CNS = tested on: SNB-19 CNS
HS 578T breast = tested on: HS 578T breast
NCI-H23 lung = tested on: NCI-H23 lung
CAKI-1 renal = tested on: CAKI-1 renal
HCT-116 colon = tested on: HCT-116 colon
M14 melanoma = tested on: M14 melanoma
OVCAR-5 ovarian = tested on: OVCAR-5 ovarian
RPMI-8226 leukemia = tested on: RPMI-8226 leukemia
HT29 colon = tested on: HT29 colon
U251 CNS = tested on: U251 CNS
HOP-92 NSCLC = tested on: HOP-92 NSCLC
SF-268 CNS = tested on: SF-268 CNS
NCI/ADR-RES ovarian = tested on: NCI/ADR-RES ovarian
HCC-2998 colon = tested on: HCC-2998 colon
UACC-257 melanoma = tested on: UACC-257 melanoma
HCT-15 colon = tested on: HCT-15 colon
OVCAR-4 ovarian = tested on: OVCAR-4 ovarian
OVCAR-3 ovarian = tested on: OVCAR-3 ovarian
MDA-MB-435 = tested on: MDA-MB-435
SF-295 CNS = tested on: SF-295 CNS
SK-OV-3 ovarian = tested on: SK-OV-3 ovarian
HOP-62 NSCLC = tested on: HOP-62 NSCLC
OVCAR-8 ovarian = tested on: OVCAR-8 ovarian
RXF 393 renal = tested on: RXF 393 renal
LOX IMVI melanoma = tested on: LOX IMVI melanoma
COLO 205 colon = tested on: COLO 205 colon
DU-145 prostate = tested on: DU-145 prostate
NCI-H522 lung = tested on: NCI-H522 lung
MOLT-4 leukemia = tested on: MOLT-4 leukemia
TK-10 renal = tested on: TK-10 renal
A498 renal = tested on: A498 renal
SK-MEL-5 melanoma = tested on: SK-MEL-5 melanoma
786-0 renal = tested on: 786-0 renal
NCI-H460 lung = tested on: NCI-H460 lung
T-47D breast = tested on: T-47D breast
SF-539 CNS = tested on: SF-539 CNS
ACHN renal = tested on: ACHN renal
KM12 colon = tested on: KM12 colon
SN12C renal = tested on: SN12C renal
EKVX NSCLC = tested on: EKVX NSCLC
UACC-62 melanoma = tested on: UACC-62 melanoma
MCF7 breast = tested on: MCF7 breast
PC-3 prostate = tested on: PC-3 prostate
UO-31 renal = tested on: UO-31 renal
SNB-75 CNS = tested on: SNB-75 CNS
MDA-N = tested on: MDA-N
NCI-H226 lung = tested on: NCI-H226 lung
SW-620 colon = tested on: SW-620 colon
SK-MEL-28 melanoma = tested on: SK-MEL-28 melanoma
SR leukemia = tested on: SR leukemia

Cc1c2c(OCC3CCCCO3)nn(C)c(=O)c2c(C)n1-c1ccccc1 (stereo not drawn)
TGI (SK-MEL-2 melanoma): 39.4 µM | TGI (BT-549 breast): 38.2 µM | TGI (IGROV1 ovarian): 37.8 µM | TGI (K-562 leukemia): > 100 µM | TGI (A549 NSCLC): 33.7 µM | TGI (MDA-MB-231 breast): 32.2 µM | TGI (MALME-3M melanoma): 33.1 µM | TGI (SNB-19 CNS): 46.8 µM | TGI (HS 578T breast): 46.6 µM | TGI (NCI-H23 lung): 44.2 µM | TGI (CAKI-1 renal): 59 µM | TGI (HCT-116 colon): 31.6 µM | TGI (M14 melanoma): 34.9 µM | TGI (OVCAR-5 ovarian): 35.9 µM | TGI (RPMI-8226 leukemia): > 100 µM | TGI (HT29 colon): 91.4 µM | TGI (U251 CNS): 31.2 µM | TGI (HOP-92 NSCLC): 33.1 µM | TGI (SF-268 CNS): 30.7 µM | TGI (NCI/ADR-RES ovarian): 50.7 µM | TGI (HCC-2998 colon): 29.4 µM | TGI (UACC-257 melanoma): 34.9 µM | TGI (HCT-15 colon): 33.4 µM | TGI (OVCAR-4 ovarian): 32.8 µM | TGI (OVCAR-3 ovarian): 33.3 µM | TGI (MDA-MB-435): 37.4 µM | TGI (SF-295 CNS): 31.4 µM | TGI (SK-OV-3 ovarian): 34.8 µM | TGI (HOP-62 NSCLC): 38 µM | TGI (OVCAR-8 ovarian): 42.2 µM | TGI (RXF 393 renal): 34.3 µM | TGI (LOX IMVI melanoma): 33.7 µM | TGI (COLO 205 colon): 33.3 µM | TGI (DU-145 prostate): 36.9 µM | TGI (NCI-H522 lung): 34.9 µM | TGI (MOLT-4 leukemia): > 100 µM | TGI (TK-10 renal): 45.4 µM | TGI (A498 renal): 28.3 µM | TGI (SK-MEL-5 melanoma): 29.1 µM | TGI (786-0 renal): 33.9 µM | TGI (NCI-H460 lung): 30.9 µM | TGI (T-47D breast): 70.3 µM | TGI (SF-539 CNS): 37.2 µM | TGI (ACHN renal): 31.1 µM | TGI (KM12 colon): 40.4 µM | TGI (SN12C renal): 40.6 µM | TGI (EKVX NSCLC): 33.2 µM | TGI (UACC-62 melanoma): 31 µM | TGI (MCF7 breast): 30.3 µM | TGI (PC-3 prostate): 36 µM | TGI (UO-31 renal): 31.2 µM | TGI (SNB-75 CNS): 32 µM | TGI (MDA-N): 35.8 µM | TGI (NCI-H226 lung): 42.7 µM

O=C(c1ccncc1)C1C(=O)c2ccccc2C1C1(O)c2ccccc2CC1C(O)c1ccncc1 (stereo not drawn)
TGI (SK-MEL-2 melanoma): 57.3 µM | TGI (BT-549 breast): > 100 µM | TGI (IGROV1 ovarian): > 100 µM | TGI (K-562 leukemia): > 100 µM | TGI (A549 NSCLC): > 100 µM | TGI (MDA-MB-231 breast): > 100 µM | TGI (MALME-3M melanoma): > 100 µM | TGI (SNB-19 CNS): > 100 µM | TGI (HS 578T breast): > 100 µM | TGI (NCI-H23 lung): > 100 µM | TGI (CAKI-1 renal): > 100 µM | TGI (HCT-116 colon): > 100 µM | TGI (M14 melanoma): > 100 µM | TGI (OVCAR-5 ovarian): > 100 µM | TGI (RPMI-8226 leukemia): 90.2 µM | TGI (HT29 colon): > 100 µM | TGI (U251 CNS): > 100 µM | TGI (HOP-92 NSCLC): > 100 µM | TGI (SW-620 colon): > 100 µM | TGI (SF-268 CNS): > 100 µM | TGI (NCI/ADR-RES ovarian): > 100 µM | TGI (HCC-2998 colon): > 100 µM | TGI (UACC-257 melanoma): > 100 µM | TGI (HCT-15 colon): > 100 µM | TGI (OVCAR-4 ovarian): > 100 µM | TGI (MDA-MB-435): 47.9 µM | TGI (SF-295 CNS): > 100 µM | TGI (SK-OV-3 ovarian): > 100 µM | TGI (HOP-62 NSCLC): > 100 µM | TGI (OVCAR-8 ovarian): > 100 µM | TGI (RXF 393 renal): > 100 µM | TGI (LOX IMVI melanoma): > 100 µM | TGI (COLO 205 colon): > 100 µM | TGI (SK-MEL-28 melanoma): > 100 µM | TGI (NCI-H522 lung): > 100 µM | TGI (MOLT-4 leukemia): 69.7 µM | TGI (TK-10 renal): > 100 µM | TGI (A498 renal): > 100 µM | TGI (SK-MEL-5 melanoma): > 100 µM | TGI (SR leukemia): > 100 µM | TGI (786-0 renal): > 100 µM | TGI (NCI-H460 lung): > 100 µM | TGI (T-47D breast): > 100 µM | TGI (SF-539 CNS): > 100 µM | TGI (ACHN renal): > 100 µM | TGI (KM12 colon): > 100 µM | TGI (SN12C renal): > 100 µM | TGI (EKVX NSCLC): > 100 µM | TGI (UACC-62 melanoma): 48.7 µM | TGI (MCF7 breast): > 100 µM | TGI (UO-31 renal): 29 µM | TGI (SNB-75 CNS): > 100 µM | TGI (MDA-N): 38.9 µM | TGI (NCI-H226 lung): > 100 µM
